Several values for one entry are separate records, joined by “and”; a condition that tells them apart may be missing. Equal values may be shown once.
What was measured:
[1] = Hydrolytic half-life of AB23A in human intestine microsomes; type: in vitro ADME; conditions: human intestine microsomes (HIMs), HIMs 0.1 mg/mL, PBS pH 7.4, read-out: t1/2 (hydrolytic/metabolic half-life)
Description: The hydrolytic half-lives (t1/2) of AB23A in human plasma and different human tissue preparations were carried out according to the procedure of in vitro metabolic stability studies ([Ge et al., 2013]). The incubation mixture (1,000 μL) consisted of PBS (pH 7.4), enzyme sources (HLMs/HIMs/human plasma) and AB23A. 25% diluted human plasma was used, the protein concentrations of other tissue microsomes were 0.1 mg/mL. The 100 μL incubation mixture was moved to another containing ice-cold acetonitrile tube at different time points (0, 5, 15, 30, 45, 60, 90, 120 min). All samples were centrifuged for 30 min at 20,000 g 4°C and took the supernatants for LC-UV analysis.
The incubation conditions were as follows: the classic incubation system included 100 mM potassium phosphate buffer (PBS, pH 7.4), enzyme sources, and AB23A. In all incubations, PBS and enzyme sources were pre-incubation at 37 °C for 3 min and the reaction was started by adding AB23A (the organic solvent content at most 1%). After reacting 1 h, ice-cold acetonitrile was added to terminate the reaction and precipitate proteins. The samples were centrifuged for 30 min at 20000 × g, 4 °C, and the supernatants were taken for further LC-UV analysis.

[2] = Hydrolytic half-life of AB23A in mouse liver microsomes; type: in vitro ADME; conditions: mouse liver microsomes (MLMs), pH 7.4, MLMs 0.10 mg/mL, read-out: T1/2 (hydrolytic half-life)
hCES2A = biological target: T1, hCES2A (Homo sapiens, UniProt O00748); test: Kinetic analysis of AB23A hydrolysis in hCES2A; type: in vitro ADME; conditions: 1 h incubation
T1 construct: 10xHis; made in house; host or cells: HEK293-F cells, pTT5 vector, purified from conditioned medium
T1 sequence (O00748 27-559): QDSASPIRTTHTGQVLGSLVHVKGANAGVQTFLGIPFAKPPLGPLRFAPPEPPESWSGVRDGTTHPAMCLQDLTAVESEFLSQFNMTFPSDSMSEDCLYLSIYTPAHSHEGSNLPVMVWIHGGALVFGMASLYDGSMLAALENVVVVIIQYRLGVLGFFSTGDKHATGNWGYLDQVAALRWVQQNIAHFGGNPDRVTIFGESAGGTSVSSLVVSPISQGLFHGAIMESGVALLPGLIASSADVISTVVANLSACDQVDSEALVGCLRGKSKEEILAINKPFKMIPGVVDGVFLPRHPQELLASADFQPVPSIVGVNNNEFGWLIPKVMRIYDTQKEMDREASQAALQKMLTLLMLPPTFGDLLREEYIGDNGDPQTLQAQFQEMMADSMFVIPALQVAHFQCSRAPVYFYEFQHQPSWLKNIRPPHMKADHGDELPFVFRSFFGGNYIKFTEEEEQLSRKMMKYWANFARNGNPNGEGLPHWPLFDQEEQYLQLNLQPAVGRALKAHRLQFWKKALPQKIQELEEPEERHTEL
Description: (§1) The enzymatic kinetics of AB23A hydrolysis in different tissue preparations (HLMs, HIMs, human plasma) and human recombinant enzymes (hCES1A, hCES2A, hSA, hBchE) were analyzed. The incubation system (200 μL) consisted of PBS, each tested enzyme, and AB23A (ranging from 0 to 1,000 μM). After incubating for 1 h, the supernatants were then used for LC-UV analysis. The kinetic parameters of AB23A hydrolysis were fitted by the following Michaelis−Menten Eq. 1 ([Zhang et al., 2022]). V=(Vmax×[S])⁄(Km+[S]) (1) Here, K m is the Michaelis constant of AB23A hydrolysis, V max is the maximum velocity of AB23A hydrolysis, V max /K m is used to calculate the intrinsic clearance (CL int ).

hBchE = biological target: T2, hBchE (Homo sapiens, UniProt P06276); test: Kinetic analysis of AB23A hydrolysis in hBchE; type: in vitro ADME; conditions: 1 h incubation
T2 construct: purchased Sigma-Aldrich Lot SLCG5158
T2 sequence (P06276 29-602): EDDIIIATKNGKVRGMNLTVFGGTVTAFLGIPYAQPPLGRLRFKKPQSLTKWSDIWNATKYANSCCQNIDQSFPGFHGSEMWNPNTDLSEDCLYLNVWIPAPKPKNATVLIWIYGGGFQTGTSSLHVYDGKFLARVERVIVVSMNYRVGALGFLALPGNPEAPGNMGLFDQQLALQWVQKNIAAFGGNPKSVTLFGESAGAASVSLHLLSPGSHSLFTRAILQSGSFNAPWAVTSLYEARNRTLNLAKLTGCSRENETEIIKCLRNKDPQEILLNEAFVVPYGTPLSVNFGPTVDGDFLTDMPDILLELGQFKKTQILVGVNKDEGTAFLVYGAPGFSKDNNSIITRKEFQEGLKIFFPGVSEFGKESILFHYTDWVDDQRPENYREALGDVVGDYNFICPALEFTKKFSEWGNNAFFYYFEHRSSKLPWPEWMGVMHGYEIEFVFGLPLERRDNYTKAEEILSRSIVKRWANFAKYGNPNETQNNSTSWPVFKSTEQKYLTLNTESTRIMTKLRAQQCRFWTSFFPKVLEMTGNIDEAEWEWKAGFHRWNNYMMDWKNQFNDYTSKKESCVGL
Description: as §1

[3] = Kinetic analysis of AB23A hydrolysis in human plasma; type: in vitro ADME; conditions: 25% dilution
Description: as §1

hCES1A = biological target: T3, hCES1A (Homo sapiens, UniProt P23141); test: Reaction phenotyping assay of AB23A hydrolysis, hCES1A; type: in vitro ADME; conditions: hCES1A 5 μg/mL, AB23A 20 μM, 60 min, pH 7.4 at 37°C
T3 construct: 10xHis; made in house; host or cells: HEK293-F cells, pTT5 vector, purified from conditioned medium
T3 sequence (P23141 18-563): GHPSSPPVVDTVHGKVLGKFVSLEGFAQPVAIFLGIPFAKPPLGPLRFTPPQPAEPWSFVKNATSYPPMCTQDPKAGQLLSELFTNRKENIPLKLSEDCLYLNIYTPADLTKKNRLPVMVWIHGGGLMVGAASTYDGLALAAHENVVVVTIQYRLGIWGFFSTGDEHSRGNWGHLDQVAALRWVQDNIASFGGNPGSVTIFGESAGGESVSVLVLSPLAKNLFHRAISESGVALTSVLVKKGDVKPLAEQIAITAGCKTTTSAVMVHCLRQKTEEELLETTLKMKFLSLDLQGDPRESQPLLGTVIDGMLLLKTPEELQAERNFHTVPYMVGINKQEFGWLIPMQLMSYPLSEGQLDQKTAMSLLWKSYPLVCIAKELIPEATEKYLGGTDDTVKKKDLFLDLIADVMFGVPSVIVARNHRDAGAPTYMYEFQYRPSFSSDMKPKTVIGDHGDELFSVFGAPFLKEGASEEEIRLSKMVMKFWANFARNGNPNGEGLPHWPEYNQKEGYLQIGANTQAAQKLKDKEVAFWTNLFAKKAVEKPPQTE
Description: The hydrolytic rates of AB23A in different human recombinant enzymes (hCES1A, hCES2A, hPL, hIAH1, hNotum, hAchE, hBchE, hSA, hCTSA, hMAGL) were assayed. The incubation system included PBS, each tested enzyme (5 μg/mL, final concentration), and AB23A (20 μM). After incubation for 1 h at 37°C, ice-cold acetonitrile was added to terminate the reaction and precipitate proteins. The supernatants by centrifuging were used to quantify the formation rates of AB by LC-UV analysis. The detection wavelength of AB was 196 nm.

[4] = set-up: method as in Liu et al. (2022); conditions: oral administration of Qingfei Paidu Decoction, ref Liu et al. (2022); cited from earlier work

For `CC(=O)O[C@H](C[C@@H](C)C1=C2C[C@H](O)C3[C@@]4(C)CCC(=O)C(C)(C)C4CC[C@]3(C)[C@@]2(C)CC1)[C@H]1OC1(C)C` (some centres unmarked) [AB23A, Alisol B 23-acetate], the half-life [1] was 68 ± 0.01 min, the half-life [2] was 2.3 ± 0.01 min and the “K m of AB23A hydrolysis” value (hCES2A) was 58.96 ± 2.41 µM. For the same molecule, the “K m of AB23A hydrolysis” value (hBchE) was 35.78 ± 3.40 µM, the “K m of AB23A hydrolysis” value [3] was 237.10 ± 15.00 µM and the “V max of AB23A hydrolysis” value [3] was 4.536 ± 0.09 nmol/min/mL and 4.536 ± 0.09 ^b nmol/min/mL. The “Hydrolytic rate (formation of AB) in reaction phenotyping” value (hCES1A) was “also catalyzed this hydrolytic reaction” and the “Detection in mice plasma and liver” value [4] was “hardly detected”.

— paper PMC10117764, “The roles of serine hydrolases and serum albumin in alisol B 23-acetate hydrolysis in humans” (Frontiers in Pharmacology, 2023)
